# Assay results taken from ChEMBL document CHEMBL1201862, “PubChem BioAssay data set” (2004).
# Activity calls are given as the source filed them.
# Key:
# [1] = tested on: HEK293; test: optical interference in Abeta FP readout, dose response, artefact control for IDE activator project, biochemical, fluorescence polarization (AID 588442); assay type: functional, cell-based; conditions: Homo sapiens
# [2] = tested on: HEK293; test: HEK cell cytotoxicity by LDH release, dose response, cytotoxicity control for IDE activator project, fluorescence, HEK cells (AID 588440); assay type: functional, cell-based; conditions: Homo sapiens;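 also: cytotoxicity by LDH release measuring loss of membrane integrity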
# [3] = target: T1, Insulin-degrading enzyme (Homo sapiens, UniProt P14735); test: activators of recombinant IDE enzyme, dose response, counter-screen for IDE activator project, biochemical, fluorescence polarization (AID 588681)
# T1 sequence (P14735 whole entry): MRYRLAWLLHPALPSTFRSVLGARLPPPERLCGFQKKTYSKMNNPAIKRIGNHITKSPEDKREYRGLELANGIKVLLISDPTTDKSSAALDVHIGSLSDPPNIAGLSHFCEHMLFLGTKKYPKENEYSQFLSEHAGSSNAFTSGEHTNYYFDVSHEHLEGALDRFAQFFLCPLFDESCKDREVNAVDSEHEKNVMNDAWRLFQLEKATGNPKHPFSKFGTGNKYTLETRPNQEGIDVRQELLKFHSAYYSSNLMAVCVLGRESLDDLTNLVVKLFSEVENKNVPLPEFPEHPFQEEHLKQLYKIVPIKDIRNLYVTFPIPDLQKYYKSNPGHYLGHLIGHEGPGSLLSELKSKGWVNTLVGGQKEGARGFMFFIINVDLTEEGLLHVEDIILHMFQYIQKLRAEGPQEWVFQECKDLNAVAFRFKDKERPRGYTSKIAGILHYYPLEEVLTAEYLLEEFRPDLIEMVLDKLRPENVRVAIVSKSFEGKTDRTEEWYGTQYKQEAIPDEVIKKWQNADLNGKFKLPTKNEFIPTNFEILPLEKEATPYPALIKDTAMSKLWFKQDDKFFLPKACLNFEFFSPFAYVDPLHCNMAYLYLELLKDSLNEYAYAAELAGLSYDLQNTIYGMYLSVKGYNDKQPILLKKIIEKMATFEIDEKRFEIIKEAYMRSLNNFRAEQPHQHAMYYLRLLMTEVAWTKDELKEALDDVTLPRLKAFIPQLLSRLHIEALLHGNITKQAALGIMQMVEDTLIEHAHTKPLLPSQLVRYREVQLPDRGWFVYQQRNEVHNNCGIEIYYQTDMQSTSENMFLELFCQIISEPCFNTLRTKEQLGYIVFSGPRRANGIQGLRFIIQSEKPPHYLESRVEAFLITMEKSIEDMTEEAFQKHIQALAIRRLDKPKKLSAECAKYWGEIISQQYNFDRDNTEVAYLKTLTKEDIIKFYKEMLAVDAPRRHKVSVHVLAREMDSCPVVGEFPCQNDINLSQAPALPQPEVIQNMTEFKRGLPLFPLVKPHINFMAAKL
# [4] = target: T1, Insulin-degrading enzyme; test: activators of endogenous IDE in HEK cells, dose response, cell-based, fluorescence polarization (AID 588439); assay type: functional
# [5] = MDA-MB-231 cell growth inhibition, dose response, cytotoxicity control for RAD54 inhibitor project, CellTiter-Glo luminescence, cherry-pick (AID 651692); assay type: functional, cell-based
# [6] = target: T2, Ubiquitin-conjugating enzyme E2 N (Homo sapiens, UniProt P61088); assay type: functional;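 also: Dose-response confirmation in a TR-FRET assay detecting UBC13-driven polyubiquitin chain formation, inhibition measured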
# T2 sequence (P61088 whole entry): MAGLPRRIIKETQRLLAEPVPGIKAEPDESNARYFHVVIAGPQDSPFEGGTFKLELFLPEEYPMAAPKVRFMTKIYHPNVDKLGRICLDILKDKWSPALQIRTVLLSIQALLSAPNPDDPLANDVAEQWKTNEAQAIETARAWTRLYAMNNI
# [7] = microbe, parasite or virus in culture; assay type: functional; conditions: Mycobacterium tuberculosis
# [8] = Luminescence Cell-Based Dose Retest to Confirm Inhibitors of Cancer Stem Cells. [Related pubchem assays (depositor defined):AID2717, AID2721]; assay type: functional; conditions: Homo sapiens
# [9] = target: Glycogen synthase kinase-3 beta (Homo sapiens, UniProt P49841); test: Inhibition of Human GSK-3 beta Activity Measured in Biochemical System Using Microfluidics - 2063-05_Inhibitor_Dose_DryPowder_Activity_Set2. [Related pubchem assays (depositor defined):AID2709]
# [10] = target: Glycogen synthase kinase-3 alpha (Homo sapiens, UniProt P49840); test: Inhibition of Human GSK-3 alpha Activity Measured in Biochemical System Using Microfluidics - 2063-06_Inhibitor_Dose_DryPowder_Activity_Set2. [Related pubchem assays (depositor defined):AID2709]
# [11] = growth suppression of PTEN-null colon cells, dose response, cell-based, HCT116 PTEN knockout (AID 1047); assay type: functional;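 also: HCT116 colon tumor cells with PTEN knocked out; cells exposed to compound for 60 hours before readout; potency for loss of cell viability measured by luminescence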
# [12] = growth suppression of beta-catenin-knockout colon cells, dose response, cell-based, HCT116, human colon tumor (AID 1045); assay type: functional;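 also: HCT116 colon tumor cells with beta catenin knocked out; cells exposed to compound for 60 hours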
# [13] = target: T3, High affinity choline transporter 1 (Homo sapiens, UniProt Q9GZV3); test: CHT activators, dose response, cell-based, 10-point CRC, membrane potential dye (AID 602376); assay type: functional
# T3 sequence (Q9GZV3 whole entry): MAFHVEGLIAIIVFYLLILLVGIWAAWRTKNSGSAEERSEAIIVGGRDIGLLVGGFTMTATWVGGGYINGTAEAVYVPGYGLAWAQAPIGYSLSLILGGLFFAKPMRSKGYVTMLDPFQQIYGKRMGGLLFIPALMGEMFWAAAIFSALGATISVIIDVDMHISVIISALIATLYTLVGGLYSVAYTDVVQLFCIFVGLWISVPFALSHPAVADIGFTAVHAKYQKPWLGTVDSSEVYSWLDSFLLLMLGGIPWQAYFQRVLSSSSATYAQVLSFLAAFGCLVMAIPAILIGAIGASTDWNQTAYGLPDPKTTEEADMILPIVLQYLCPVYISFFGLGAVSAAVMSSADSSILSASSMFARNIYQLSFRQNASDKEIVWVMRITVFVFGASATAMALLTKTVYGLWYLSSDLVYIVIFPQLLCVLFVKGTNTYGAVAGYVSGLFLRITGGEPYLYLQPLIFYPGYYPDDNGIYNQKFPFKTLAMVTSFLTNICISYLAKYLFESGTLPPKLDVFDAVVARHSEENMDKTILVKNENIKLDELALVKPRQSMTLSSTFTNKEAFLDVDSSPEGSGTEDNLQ
# Glycogen synthase kinase-3 beta, sequence (P49841 whole entry): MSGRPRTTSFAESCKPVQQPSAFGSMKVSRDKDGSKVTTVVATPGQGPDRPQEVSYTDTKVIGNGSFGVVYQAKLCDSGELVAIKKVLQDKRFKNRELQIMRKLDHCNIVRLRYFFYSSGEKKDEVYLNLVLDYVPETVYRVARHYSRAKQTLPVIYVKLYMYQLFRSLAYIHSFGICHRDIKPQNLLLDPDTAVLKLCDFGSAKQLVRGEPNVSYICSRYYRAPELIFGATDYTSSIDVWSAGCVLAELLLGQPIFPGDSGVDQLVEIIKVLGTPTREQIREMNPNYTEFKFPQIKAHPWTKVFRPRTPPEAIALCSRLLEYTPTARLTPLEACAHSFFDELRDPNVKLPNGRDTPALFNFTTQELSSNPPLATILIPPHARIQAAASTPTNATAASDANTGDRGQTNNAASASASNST
# Glycogen synthase kinase-3 alpha, sequence (P49840 whole entry): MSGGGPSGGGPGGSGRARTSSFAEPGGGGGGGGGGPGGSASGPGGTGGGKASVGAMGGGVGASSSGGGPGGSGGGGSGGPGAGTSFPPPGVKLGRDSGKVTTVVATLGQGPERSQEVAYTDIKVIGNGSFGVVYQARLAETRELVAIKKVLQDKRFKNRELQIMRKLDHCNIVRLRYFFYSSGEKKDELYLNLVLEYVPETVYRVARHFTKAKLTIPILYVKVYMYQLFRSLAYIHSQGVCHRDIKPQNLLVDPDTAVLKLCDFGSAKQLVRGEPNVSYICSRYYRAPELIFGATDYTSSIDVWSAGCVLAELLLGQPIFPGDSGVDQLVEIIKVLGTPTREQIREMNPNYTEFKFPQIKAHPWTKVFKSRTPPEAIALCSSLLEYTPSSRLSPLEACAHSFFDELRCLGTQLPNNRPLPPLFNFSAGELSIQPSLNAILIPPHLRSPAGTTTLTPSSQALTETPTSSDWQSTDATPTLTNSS
compound,measurement,setting,value
O=C(NCC1CC1)c1onc(CSc2ccc(F)c(F)c2)c1C(=O)NCC1CC1,EC50,[1],> 54.7 µM (inactive)
same,IC50,[2],> 89.3 µM (inactive)
same,EC50,[3],> 54.7 µM (inactive)
same,EC50,[4],> 54.7 µM (inactive)
Cc1ccc(C)c(N2CCN(C(=S)Nc3ccc4nc(N5CCN(C)CC5)cc(C)c4c3)CC2)c1,EC50,[1],> 55.9 µM (inactive)
same,IC50,[2],18 µM (inactive)
same,EC50,[3],> 54.7 µM (inactive)
same,AC50,[5],34.8 µM (active)
same,IC50,[6],> 20 µM (inactive)
same,CC50,[7],17.1 µM (active)
same,AC50,[8],13.3 µM (active)
same,EC50,[4],> 54.7 µM (inactive)
Nc1nc(NCCCN2CCOCC2)nc(Nc2cccc(Cl)c2)c1[N+](=O)[O-],AC50,[9],0.253 µM (active)
same,AC50,[10],0.429 µM (active)
O=C(Cc1cccs1)N(Cc1ccco1)C1(C(=O)NC2CCCCC2)CCCCC1,EC50,[11],159 µM (active)
same,EC50,[12],431 µM (active)
same,EC50,[13],24.2 µM (active)
